Usually Ki stands for the equilibrium dissociation constant of an inhibitor or competing ligand from its target.

The target in one assay is Mu-type opioid receptor (Homo sapiens, UniProt P35372). The experiment in a line: Binding affinity for recombinant human mu-opioid receptor was determined by using [3H]- diprenophine radioligand.
In assay [1] the target is T1, Nociceptin receptor (Homo sapiens, UniProt P41146). The experiment in a line: Binding affinity for opioid receptor like 1 expressed in HEK293 cells. In kind it is cell-based.
Assay [2] addresses T1, Nociceptin receptor. The experiment in a line: Agonistic activity determined by ability to stimulate GTP gamma S binding in comparison to nociceptin (N/OFQ). Set-up: concentration or dose not given beside the values. For orientation: GTPγS resists hydrolysis and so accumulates on activated G proteins.
Assay [3] concerns the target Nociceptin receptor (Rattus norvegicus) (UniProt P35370). The experiment in a line: Agonistic activity by its ability to stimulate NOP in comparison to DAMGO. The class given is functional.
Assay [4] concerns the target Mu opioid receptor (Rattus norvegicus) (UniProt P33535). The experiment in a line: Partial agonistic activity by its ability to stimulate GTP gamma S binding in comparison to DAMGO.
The target of assay [5] is T1, Nociceptin receptor. The experiment in a line: Partial agonistic activity determined by ability to stimulate GTP gamma S binding in comparison to nociceptin (N/OFQ).
Assay [6] concerns the target Nociceptin receptor (Rattus norvegicus) (UniProt P35370). The experiment in a line: Partial Agonistic activity by its ability to stimulate NOP in comparison to DAMGO. In kind it is functional.
Assay [7] shares this target. The experiment in a line: Partial agonistic activity by its ability to stimulate NOP in comparison to DAMGO. The class given is functional.

Each structure is given as a SMILES string.

Sequence of Nociceptin receptor (Rattus norvegicus) (P35370 whole entry): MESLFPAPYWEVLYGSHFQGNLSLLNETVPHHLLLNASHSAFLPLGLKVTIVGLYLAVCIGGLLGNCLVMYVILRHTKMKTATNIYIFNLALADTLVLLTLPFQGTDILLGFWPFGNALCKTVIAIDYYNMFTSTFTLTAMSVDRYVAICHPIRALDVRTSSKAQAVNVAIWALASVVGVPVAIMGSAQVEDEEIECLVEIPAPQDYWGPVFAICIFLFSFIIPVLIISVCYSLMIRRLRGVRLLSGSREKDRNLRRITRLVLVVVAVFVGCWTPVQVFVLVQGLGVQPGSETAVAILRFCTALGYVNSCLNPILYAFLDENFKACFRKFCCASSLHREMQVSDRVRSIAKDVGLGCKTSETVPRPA
T1 sequence (P41146 whole entry): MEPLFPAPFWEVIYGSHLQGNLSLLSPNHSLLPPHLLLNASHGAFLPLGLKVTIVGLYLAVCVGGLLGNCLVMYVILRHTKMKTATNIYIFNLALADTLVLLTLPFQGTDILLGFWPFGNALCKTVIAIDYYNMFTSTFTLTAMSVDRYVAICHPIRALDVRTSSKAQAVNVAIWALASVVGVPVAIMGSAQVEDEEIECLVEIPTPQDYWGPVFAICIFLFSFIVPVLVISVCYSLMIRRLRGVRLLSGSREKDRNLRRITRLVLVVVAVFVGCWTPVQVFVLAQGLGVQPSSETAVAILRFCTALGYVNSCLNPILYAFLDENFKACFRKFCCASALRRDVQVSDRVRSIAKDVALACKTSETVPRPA
Sequence of Mu-type opioid receptor (P35372 whole entry): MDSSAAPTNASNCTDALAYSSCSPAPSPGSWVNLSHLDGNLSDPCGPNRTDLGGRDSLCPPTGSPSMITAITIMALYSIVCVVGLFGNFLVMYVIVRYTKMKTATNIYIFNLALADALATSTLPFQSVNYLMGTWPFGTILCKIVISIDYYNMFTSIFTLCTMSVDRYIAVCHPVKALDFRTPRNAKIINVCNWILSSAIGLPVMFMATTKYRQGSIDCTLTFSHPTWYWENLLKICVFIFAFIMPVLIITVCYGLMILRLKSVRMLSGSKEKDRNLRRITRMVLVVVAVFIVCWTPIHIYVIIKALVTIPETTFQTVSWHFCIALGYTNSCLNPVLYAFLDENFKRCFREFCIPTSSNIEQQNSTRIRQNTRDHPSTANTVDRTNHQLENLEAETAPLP
Sequence of Mu opioid receptor (Rattus norvegicus) (P33535 whole entry, looked up): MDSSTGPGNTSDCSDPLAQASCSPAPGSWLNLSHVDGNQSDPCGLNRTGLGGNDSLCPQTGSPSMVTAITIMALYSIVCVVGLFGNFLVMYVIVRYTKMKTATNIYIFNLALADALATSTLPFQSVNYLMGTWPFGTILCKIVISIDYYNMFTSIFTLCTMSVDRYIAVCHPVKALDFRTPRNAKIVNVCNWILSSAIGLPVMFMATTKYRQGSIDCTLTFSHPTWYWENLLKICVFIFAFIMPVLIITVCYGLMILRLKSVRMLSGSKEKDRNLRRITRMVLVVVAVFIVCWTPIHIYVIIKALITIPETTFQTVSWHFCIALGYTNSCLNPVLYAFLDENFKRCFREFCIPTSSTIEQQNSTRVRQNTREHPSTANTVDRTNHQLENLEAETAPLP

For the molecule `[O-][N+]1(Cc2ccc3ccccc3c2)CCC(O)(c2ccc(Cl)c(C(F)(F)F)c2)CC1` (stereo not drawn), the inhibition constant Ki on Mu-type opioid receptor and at Nociceptin receptor [1] was more than 10000 nM throughout.
Molecule `CN(C)C(=O)C(CCN1CCC(O)(c2ccc(Cl)cc2)CC1)(c1ccccc1)c1ccccc1` [LOPERAMIDE] showed an inhibition constant (Ki) at Nociceptin receptor [1] of more than 10000 nM. Also, the Activity at Nociceptin receptor [2] is more than 75%.
Regarding `OC1(c2cccc(C(F)(F)F)c2)CCN(CCC(c2ccccc2)c2ccccc2)CC1`, the Activity (in assay [3]; at Nociceptin receptor [2]) was more than 75% throughout.
As to `[O-][N+]1(CCC(c2ccccc2)c2ccccc2)CCC(O)(c2ccc(Cl)c(C(F)(F)F)c2)CC1` (stereo not drawn), the inhibition constant (Ki) on Mu-type opioid receptor and on Nociceptin receptor [1] was more than 10000 nM throughout.
As to `OC1(c2ccc(Cl)c(C(F)(F)F)c2)CCN(CCC(c2ccccc2)c2ccccc2)CC1`, the Activity in assay [4] was more than 10%; at Nociceptin receptor [2] it was more than 75%.
In turn, `OC1(c2ccc(Cl)c(C(F)(F)F)c2)CCN(Cc2ccc(C(F)(F)F)cc2)CC1` came in with an Activity on Nociceptin receptor [5] of more than 10%. In addition, the Ki at Mu-type opioid receptor stood at 104 nM.
With `[O-][N+]1(CCC(c2ccccc2)c2ccccc2)CCC(O)(c2cccc(C(F)(F)F)c2)CC1` (stereo not drawn), the Ki at Mu-type opioid receptor is 8130 nM; at Nociceptin receptor [1], more than 10000 nM.
On to `N#Cc1ccc(CN2CCC(O)(c3ccc(Cl)c(C(F)(F)F)c3)CC2)cc1`, for which the Ki on Mu-type opioid receptor was more than 10000 nM.
Take `O=C(O)C(CCN1CCC(O)(c2cccc(C(F)(F)F)c2)CC1)(c1ccccc1)c1ccccc1`: the results for the inhibition constant (Ki) on Mu-type opioid receptor and at Nociceptin receptor [1] were 331 nM and more than 10000 nM, respectively. At Nociceptin receptor [2], this molecule came in with an Activity of more than 75%.
On to `O=C(O)C(CCN1CCC(O)(c2ccc(Cl)c(C(F)(F)F)c2)CC1)(c1ccccc1)c1ccccc1`, for which the Ki is 489 nM on Mu-type opioid receptor and more than 10000 nM at Nociceptin receptor [1]. The Activity on Nociceptin receptor [2] was more than 75%.
In the case of `OC1(c2ccc(Cl)cc2)CCN(CCC(c2ccccc2)c2ccccc2)CC1`, the Activity (at Nociceptin receptor [5]; in assay [6]) was more than 10% throughout. For the same molecule, the figures for the Ki at Mu-type opioid receptor and at Nociceptin receptor [1] were 37 nM and 372 nM, respectively.
In the case of `COC(=O)C(CCN1CCC(O)(c2cccc(C(F)(F)F)c2)CC1)(c1ccccc1)c1ccccc1`, the Activity (in assay [3]; on Nociceptin receptor [2]) was more than 75% each time. Besides, the Ki on Mu-type opioid receptor stood at 0.11 nM; at Nociceptin receptor [1] it was 78 nM.
Take `COC(=O)C(CCN1CCC(O)(c2ccc(Cl)c(C(F)(F)F)c2)CC1)(c1ccccc1)c1ccccc1`: the Activity (in assay [3]; on Nociceptin receptor [2]) was more than 75% throughout. Also, the Ki at Mu-type opioid receptor came to 0.3 nM; on Nociceptin receptor [1], 149 nM.
Consider `COC(=O)C(CCN1CCC(O)(c2ccc(Cl)cc2)CC1)(c1ccccc1)c1ccccc1`, for which the Activity (in assay [3]; on Nociceptin receptor [2]) was more than 75% in each case. The figures for the Ki at Mu-type opioid receptor and on Nociceptin receptor [1] were 0.23 nM and 590 nM, respectively.
In the case of `O=C(O)C(CCN1CCC(O)(c2ccc(Cl)cc2)CC1)(c1ccccc1)c1ccccc1`, the inhibition constant (Ki) at Nociceptin receptor [1] is more than 10000 nM. This molecule showed an Activity on Nociceptin receptor [2] of more than 75%.
Regarding `CN(C)C(=O)C(CCN1CCC(O)(c2cccc(C(F)(F)F)c2)CC1)(c1ccccc1)c1ccccc1`, the Activity (in assay [3]; at Nociceptin receptor [2]) was more than 75% each time. Further, the Ki came out at 0.16 nM on Mu-type opioid receptor and 505 nM at Nociceptin receptor [1].
For `CN(C)C(=O)C(CCN1CCC(O)(c2ccc(Cl)c(C(F)(F)F)c2)CC1)(c1ccccc1)c1ccccc1` [FLUPERAMIDE], the results for the Ki on Mu-type opioid receptor and on Nociceptin receptor [1] were 0.11 nM and 2150 nM, respectively. Moreover, at Nociceptin receptor [2], the Activity is more than 75%.
In the case of `OC1(c2ccc(Cl)c(C(F)(F)F)c2)CCN(Cc2ccc3ccccc3c2)CC1`, the Ki on Mu-type opioid receptor is 2.5 nM. For the same molecule, the Activity in assay [7] is more than 10%.

Values taken from ChEMBL document CHEMBL1137050, “Design and synthesis of 4-phenyl piperidine compounds targeting the mu receptor” (Bioorg Med Chem Lett, 2004).
